biological target: T1, GCN2 (Homo sapiens, UniProt Q9P2K8); experiment: TR-FRET biochemical assay for inhibition of GCN2 activity; details: 2 nM GCN2, 100 nM GFP-eIF2α, 150 μM ATP, 1.5 hours at 25° C.
T1 construct: purchased Carma Biosciences (so in the source)
Method: Exemplary compounds from the above Examples were tested for ability to inhibit GCN2 activity using a time resolved fluorescence energy transfer (TR-FRET) assay. Assay procedures and results are described below for Examples 12-105.
GCN2 protein was obtained from Carma Biosciences (cat #05-153). The protein was diluted in assay buffer (ThermoFisher Scientific, #PV6135), 2 mM dithiothreitol (DTT), to obtain a final concentration of 2 nM and 5 μL was plated in a 384-well white assay plate. Test compounds were serially diluted to 11 concentrations by 3-fold dilution in DMS0 and 10 nL of stock was plated into 384 well white assay plate. DMS0 was used as a vehicle control. GFP-eIF2α protein was obtained from ThermoFisher (cat #PV4809). The protein was diluted in assay buffer to a 2× concentration of 200 nM along with 300 μM ATP (final concentration of 100 nM GFP-eIF2α and 150 μM ATP) in the presence of 2 mM DTT and a […] was added to each well containing the GCN2 protein and test compound. The plate was incubated in the dark at 25° C. for 1.5 hours, shaking at 1250 rpm. Tb-anti P-eIF2α (ThermoFisher cat #PV4815) was diluted to a to a concentration of 1 nM in TR-FRET Dilution Buffer (ThermoFisher cat #PV3574). 10 μL of the Tb-anti P-eIF2a solution was added to the TR-FRET reaction. The plate was incubated in the dark for 2 h at 25° C. shaking at 600 rpm. The FRET signal from the plate was read on a Envision (PerkinElmer) plate reader: • Label 1: Excitation: 340 nm, bandwidth 30 nm; Emission: 495 nm, bandwidth 10 nm. Lag time: 100 μsec. Integration time: 400 μsec. Flashes: 30. • Label 2: Excitation: 340 nm, bandwidth 30 nm; Emission: 520 nm, bandwidth 25 nm. Lag time: 100 μsec. Integration time: 400 μsec. Flashes: 30
The data were analyzed using GraphPad Prism employing a 4-parameter sigmoidal curve fit.

T1 sequence (Q9P2K8 whole entry): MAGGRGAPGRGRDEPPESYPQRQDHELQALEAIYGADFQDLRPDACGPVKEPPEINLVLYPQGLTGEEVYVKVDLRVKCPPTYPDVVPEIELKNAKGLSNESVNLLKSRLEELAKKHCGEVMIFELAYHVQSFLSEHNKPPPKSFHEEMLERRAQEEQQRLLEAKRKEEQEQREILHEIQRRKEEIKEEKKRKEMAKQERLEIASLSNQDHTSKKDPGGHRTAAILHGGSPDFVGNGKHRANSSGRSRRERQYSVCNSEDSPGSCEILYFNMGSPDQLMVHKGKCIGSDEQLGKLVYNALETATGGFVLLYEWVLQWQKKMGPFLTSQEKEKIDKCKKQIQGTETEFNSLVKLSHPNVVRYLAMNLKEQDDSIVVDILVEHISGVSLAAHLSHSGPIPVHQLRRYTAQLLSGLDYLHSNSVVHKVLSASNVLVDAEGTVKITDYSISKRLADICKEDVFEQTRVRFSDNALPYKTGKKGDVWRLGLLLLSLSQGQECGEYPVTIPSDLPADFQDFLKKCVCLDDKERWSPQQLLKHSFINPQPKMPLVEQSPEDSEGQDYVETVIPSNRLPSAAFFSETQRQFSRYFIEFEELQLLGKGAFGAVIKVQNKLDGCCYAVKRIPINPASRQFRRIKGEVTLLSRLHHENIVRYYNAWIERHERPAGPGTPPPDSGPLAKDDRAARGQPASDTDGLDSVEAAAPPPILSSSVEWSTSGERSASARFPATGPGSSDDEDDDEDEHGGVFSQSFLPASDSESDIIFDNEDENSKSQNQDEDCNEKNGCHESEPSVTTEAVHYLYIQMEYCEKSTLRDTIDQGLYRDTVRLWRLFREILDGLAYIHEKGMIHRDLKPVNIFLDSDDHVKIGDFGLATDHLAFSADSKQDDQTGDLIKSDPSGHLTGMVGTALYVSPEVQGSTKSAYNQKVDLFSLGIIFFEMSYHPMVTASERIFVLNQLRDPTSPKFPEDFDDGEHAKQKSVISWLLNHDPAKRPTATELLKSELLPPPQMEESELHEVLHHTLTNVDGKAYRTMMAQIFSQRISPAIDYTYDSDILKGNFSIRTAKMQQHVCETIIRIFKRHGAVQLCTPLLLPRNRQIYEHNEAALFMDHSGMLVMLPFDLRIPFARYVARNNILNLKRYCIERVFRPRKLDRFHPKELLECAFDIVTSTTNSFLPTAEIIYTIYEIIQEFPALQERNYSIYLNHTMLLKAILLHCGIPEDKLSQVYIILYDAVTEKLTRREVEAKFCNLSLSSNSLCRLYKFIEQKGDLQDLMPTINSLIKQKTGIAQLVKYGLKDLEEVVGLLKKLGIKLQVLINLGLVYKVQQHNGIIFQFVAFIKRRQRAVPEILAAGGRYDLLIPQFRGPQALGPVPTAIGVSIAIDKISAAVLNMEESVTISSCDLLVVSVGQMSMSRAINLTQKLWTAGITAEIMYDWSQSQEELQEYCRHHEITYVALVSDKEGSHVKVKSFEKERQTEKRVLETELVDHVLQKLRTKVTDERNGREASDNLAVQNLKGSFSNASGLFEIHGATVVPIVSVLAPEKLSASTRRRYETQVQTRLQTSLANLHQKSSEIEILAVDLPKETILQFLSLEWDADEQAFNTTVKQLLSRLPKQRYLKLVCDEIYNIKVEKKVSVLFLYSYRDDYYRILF

COc1ncc(Cl)cc1S(=O)(=O)Nc1ccc(F)c(COc2cnc3[nH]ncc3c2)c1F [Compound 1, 5-chloro-N-[2,4-difluoro-3-([1H-pyrazolo[3,4-b]pyridin-5-yloxy]methyl)phenyl]-2-methoxypyridine-3-sulfonamide] and COc1ncc(F)cc1S(=O)(=O)Nc1ccc(F)c(COc2cnc3[nH]ncc3c2)c1F [Compound 21, N-[2,4-difluoro-3-([1H-pyrazolo[3,4-b]pyridin-5-yloxy]methyl)phenyl]-5-fluoro-2-methoxypyridine-3-sulfonamide] cannot be ordered by IC50: less than 50 nM for the first, less than 50 nM for the second.

COc1ncc(F)cc1S(=O)(=O)Nc1ccc(F)c(COc2cnc3[nH]nc(C)c3c2)c1F [Compound 2, N-[2,4-difluoro-3-[([3-methyl-1H-pyrazolo[3,4-b]pyridin-5-yl]oxy)methyl]phenyl]-5-fluoro-2-methoxypyridine-3-sulfonamide] and COc1ncc(Cl)cc1S(=O)(=O)Nc1ccc(F)c(COc2cnc3[nH]nc(C)c3c2)c1F [Compound 14, 5-chloro-N-[2,4-difluoro-3-[([3-methyl-1H-pyrazolo[3,4-b]pyridin-5-yl]oxy)methyl]phenyl]-2-methoxypyridine-3-sulfonamide] cannot be ordered by IC50: less than 50 nM for the first, less than 50 nM for the second.

COc1ncc(Cl)cc1S(=O)(=O)Nc1ccc(F)c(CNc2cnc3[nH]ncc3c2)c1F [Compound 3, 5-chloro-N-[2,4-difluoro-3-([1H-pyrazolo[3,4-b]pyridin-5-ylamino]methyl)phenyl]-2-methoxypyridine-3-sulfonamide] and COc1ncc(Cl)cc1S(=O)(=O)Nc1ccc(F)c(NCc2cnc3[nH]ncc3c2)c1F [Compound 6, 5-chloro-N-[2,4-difluoro-3-([1H-pyrazolo[3,4-b]pyridin-5-ylmethyl]amino)phenyl]-2-methoxypyridine-3-sulfonamide] fall in the same range of IC50: 50 to 500 nM for the first, 50 to 500 nM for the second.

COc1ncc(Cl)cc1S(=O)(=O)Nc1ccc(F)c(OCc2cnc3[nH]ncc3c2)c1F [Compound 4, 5-chloro-N-(2,4-difluoro-3-[1H-pyrazolo[3,4-b]pyridin-5-ylmethoxy]phenyl)-2-methoxypyridine-3-sulfonamide] and COc1ncc(Cl)cc1S(=O)(=O)Nc1ccc(F)c(CCc2cnc3[nH]ncc3c2)c1F [Compound 7, 5-chloro-N-[2,4-difluoro-3-(2-[1H-pyrazolo[3,4-b]pyridin-5-yl]ethyl)phenyl]-2-methoxypyridine-3-sulfonamide] cannot be ordered by IC50: less than 50 nM for the first, less than 50 nM for the second.

COc1ncc(Cl)cc1S(=O)(=O)Nc1ccc(F)c(CCc2cnc3n2CCOC3)c1F [Compound 5, 5-chloro-N-[2,4-difluoro-3-(2-[5H,6H,8H-imidazo[2,1-c][1,4]oxazin-3-yl]ethyl)phenyl]-2-methoxypyridine-3-sulfonamide] and COc1ncc(Cl)cc1S(=O)(=O)Nc1ccc(F)c(CCc2ccc3[nH]ncc3n2)c1F [Compound 11, 5-chloro-N-[2,4-difluoro-3-(2-[1H-pyrazolo[4,3-b]pyridin-5-yl]ethyl)phenyl]-2-methoxypyridine-3-sulfonamide] cannot be ordered by IC50: greater than 1000 nM for the first, greater than 1000 nM for the second.

CNC(=O)c1cc(CCc2c(F)ccc(NS(=O)(=O)c3cc(Cl)cnc3OC)c2F)[nH]n1 [Compound 8, 5-[2-[3-(5-chloro-2-methoxypyridine-3-sulfonamido)-2,6-difluorophenyl]ethyl]-N-methyl-1H-pyrazole-3-carboxamide] and COc1ncc(Cl)cc1S(=O)(=O)Nc1ccc(F)c(CCc2cnc3[nH]ccc3c2)c1F [Compound 12, 5-chloro-N-[2,4-difluoro-3-(2-[1H-pyrrolo[2,3-b]pyridin-5-yl]ethyl)phenyl]-2-methoxypyridine-3-sulfonamide] cannot be ordered by IC50: less than 50 nM for the first, less than 50 nM for the second.

Cc1ncc(F)cc1S(=O)(=O)Nc1ccc(F)c(CCc2cnc3[nH]ncc3c2)c1F [Compound 9, N-(3-(2-(1H-pyrazolo[3,4-b]pyridin-5-yl)ethyl)-2,4-difluorophenyl)-5-fluoro-2-methylpyridine-3-sulfonamide] and COc1ncc(F)cc1S(=O)(=O)Nc1ccc(F)c(CCc2cnc3[nH]ncc3c2)c1F [Compound 15, N-[2,4-difluoro-3-(2-[1H-pyrazolo[3,4-b]pyridin-5-yl]ethyl)phenyl]-5-fluoro-2-methoxypyridine-3-sulfonamide] cannot be ordered by IC50: less than 50 nM for the first, less than 50 nM for the second.

Compared with COc1ncc(C#N)cc1S(=O)(=O)Nc1ccc(F)c(CCc2cnc3[nH]ncc3c2)c1F [Compound 10, 5-cyano-N-[2,4-difluoro-3-(2-[1H-pyrazolo[3,4-b]pyridin-5-yl]ethyl)phenyl]-2-methoxypyridine-3-sulfonamide], COc1ncc(Cl)cc1S(=O)(=O)Nc1ccc(F)c(CCc2cc3cn[nH]c3cn2)c1F [Compound 13, 5-chloro-N-[2,4-difluoro-3-(2-[1H-pyrazolo[3,4-c]pyridin-5-yl]ethyl)phenyl]-2-methoxypyridine-3-sulfonamide] is higher in IC50: less than 50 nM for the first, greater than 1000 nM for the second. The first is the more potent here.

First: N#Cc1cc(C(F)(F)F)cc(S(=O)(=O)Nc2ccc(F)c(CCc3cnc4[nH]ncc4c3)c2F)c1 [Compound 16, 3-cyano-N-[2,4-difluoro-3-(2-[1H-pyrazolo[3,4-b]pyridin-5-yl]ethyl)phenyl]-5-(trifluoromethyl)benzenesulfonamide]
Second: COc1ncc(Cl)cc1S(=O)(=O)Nc1ccc(F)c(CCc2cnc3cnn(C)c3c2)c1F [Compound 18, 5-chloro-N-[2,4-difluoro-3-(2-[1-methylpyrazolo[4,3-b]pyridin-6-yl]ethyl)phenyl]-2-methoxypyridine-3-sulfonamide]
The IC50 of the first is higher: 50 to 500 nM for the first, less than 50 nM for the second.

Compared with COc1ncc(Cl)cc1S(=O)(=O)Nc1ccc(F)c(CCc2cnc3cn(C)nc3c2)c1F [Compound 17, 5-chloro-N-[2,4-difluoro-3-(2-[2-methylpyrazolo[4,3-b]pyridin-6-yl]ethyl)phenyl]-2-methoxypyridine-3-sulfonamide], COc1ncc(Cl)cc1S(=O)(=O)Nc1ccc(F)c(CCc2ccn3cncc3c2)c1F [Compound 19, 5-chloro-N-[2,4-difluoro-3-(2-[imidazo[1,5-a]pyridin-7-yl]ethyl)phenyl]-2-methoxypyridine-3-sulfonamide] is higher in IC50: less than 50 nM for the first, greater than 1000 nM for the second. The first is the more potent here.

Compared with COc1ncc(F)cc1S(=O)(=O)Nc1ccc(F)c(COc2cnc3[nH]ncc3c2C)c1F [Compound 20, N-[2,4-difluoro-3-[([4-methyl-1H-pyrazolo[3,4-b]pyridin-5-yl]oxy)methyl]phenyl]-5-fluoro-2-methoxypyridine-3-sulfonamide], COc1ncc(Cl)cc1S(=O)(=O)Nc1ccc(F)c(COc2cnc3[nH]ncc3c2C)c1F [Compound 22, 5-chloro-N-[2,4-difluoro-3-[([4-methyl-1H-pyrazolo[3,4-b]pyridin-5-yl]oxy)methyl]phenyl]-2-methoxypyridine-3-sulfonamide] is lower in IC50: 50 to 500 nM for the first, less than 50 nM for the second.

Compared with COc1ncc(F)cc1S(=O)(=O)Nc1ccc(F)c(COc2cnc3[nH]ncc3c2OC)c1F [Compound 23, N-[2,4-difluoro-3-[([4-methoxy-1H-pyrazolo[3,4-b]pyridin-5-yl]oxy)methyl]phenyl]-5-fluoro-2-methoxypyridine-3-sulfonamide], COc1ncc(Cl)cc1S(=O)(=O)Nc1ccc(F)c(COc2cnc3[nH]ncc3c2OC)c1F [Compound 24, 5-chloro-N-[2,4-difluoro-3-[([4-methoxy-1H-pyrazolo[3,4-b]pyridin-5-yl]oxy)methyl]phenyl]-2-methoxypyridine-3-sulfonamide] is lower in IC50: 50 to 500 nM for the first, less than 50 nM for the second.

From patent US20240150345A1, “GCN2 MODULATING COMPOUNDS AND USES THEREOF” (HiberCell, Inc., priority 2021, published 2024)
